Key:
[1] = tested on: ISC-enriched organoids; assay: Primary screen, 384-well 2.5-D organoid differentiation (ENR+CD, 6 days): basal lysozyme secretion (LYZ.NS); format: cell-based, murine; settings: for Dose.FC.LYZ.NS / Z.LYZ.NS / SSMD.LYZ.NS: primary screen; for Dose.FC.LYZ.NS: FC vs plate median; for Z.LYZ.NS: standard z score; for SSMD.LYZ.NS: strictly standardized mean difference
Excerpt: (§1) High-throughput screening.

[2] = tested on: ISC-enriched organoids; assay: Primary screen, 384-well 2.5-D organoid differentiation (ENR+CD, 6 days, Target Selective Inhibitor Library, vs whole-plate median): ATP (CellTiter-Glo 3D, CTG); settings: for Dose.FC.CTG / Z.CTG / SSMD.CTG: primary screen; for Dose.FC.CTG: FC vs plate median; for Z.CTG: standard z score; for SSMD.CTG: strictly standardized mean difference
[3] = tested on: ISC-enriched organoids; assay: Primary screen, 384-well 2.5-D organoid differentiation (ENR+CD, 6 days): carbachol-induced lysozyme secretion (LYZ.S); format: cell-based, murine; settings: primary screen; for Dose.FC.LYZ.S: FC vs plate median; for Z.LYZ.S: standard z score; for SSMD.LYZ.S: strictly standardized mean difference
Excerpt: as §1

[4] = 1st of the 4 dose lines of the treatment (dose not given)
[5] = 2nd of the 4 dose lines of the treatment (dose not given)
[6] = 3rd of the 4 dose lines of the treatment (dose not given)
[7] = 4th of the 4 dose lines of the treatment (dose not given)

`Cc1ccc(NC(=O)c2ccc(CN3CCN(C)CC3)cc2)cc1Nc1nccc(-c2cccnc2)n1` [Imatinib (STI571)] gave a Dose.FC.LYZ.NS ([1]; Dose 0.08 uM) of 0.033 log 2 fold change, a Z.LYZ.NS ([1]; Dose 0.08 uM) of 0.284 and a Dose.FC.LYZ.NS ([1]; Dose 0.40 uM) of 0.012 log 2 fold change. The Z.LYZ.NS ([1]; Dose 0.40 uM) was 0.104, the Dose.FC.LYZ.NS ([1]; Dose 2.00 uM) was 0.025 log 2 fold change and the Z.LYZ.NS ([1]; Dose 2.00 uM) was 0.217. The Dose.FC.LYZ.NS ([1]; Dose 10.00 uM) was −0.038 log 2 fold change, the Z.LYZ.NS ([1]; Dose 10.00 uM) was −0.333 and the SSMD.LYZ.NS [1, 4] was 0.326. The SSMD.LYZ.NS [1, 5] was 0.108, the SSMD.LYZ.NS [1, 6] was 0.152 and the SSMD.LYZ.NS [1, 7] was −0.330. For the same molecule, the Dose.FC.CTG ([2]; Dose 0.08 uM) was −0.150 log 2 fold change, the Z.CTG ([2]; Dose 0.08 uM) was −0.357 and the Dose.FC.CTG ([2]; Dose 0.40 uM) was 0.079 log 2 fold change. For the same molecule, the Z.CTG ([2]; Dose 0.40 uM) was 0.188, the Dose.FC.CTG ([2]; Dose 2.00 uM) was 0.056 log 2 fold change and the Z.CTG ([2]; Dose 2.00 uM) was 0.135. The Dose.FC.CTG ([2]; Dose 10.00 uM) was −0.034 log 2 fold change, the Z.CTG ([2]; Dose 10.00 uM) was −0.082 and the SSMD.CTG [2, 4] was −0.258. The SSMD.CTG [2, 5] was 0.254, the SSMD.CTG [2, 6] was 0.194 and the SSMD.CTG [2, 7] was −0.097.

With `CC1=C(/C=C/C(C)=C/C=C/C(C)=C\C(=O)O)C(C)(C)CCC1` [Isotretinoin] the SSMD.LYZ.NS [1, 4] was 0.753, the SSMD.LYZ.NS [1, 5] was 0.312 and the SSMD.LYZ.NS [1, 6] was 0.410. The SSMD.LYZ.NS [1, 7] was 0.680, the Z.CTG ([2]; Dose 0.08 uM) was 0.982 and the Z.CTG ([2]; Dose 0.40 uM) was 0.965. The Z.CTG ([2]; Dose 2.00 uM) was 0.604, the Z.CTG ([2]; Dose 10.00 uM) was 0.331 and the SSMD.CTG [2, 4] was 1.156. It also gave an SSMD.CTG [2, 5] of 0.966, an SSMD.CTG [2, 6] of 0.779 and an SSMD.CTG [2, 7] of 0.304.

Molecule `O=c1cc(-c2cccc3c2Sc2ccccc2S3)oc(N2CCOCC2)c1` [KU-55933 (ATM Kinase Inhibitor)] has a Dose.FC.LYZ.S ([3]; Dose 0.08 uM) of 0.168 log 2 fold change, a Dose.FC.LYZ.S ([3]; Dose 0.40 uM) of 0.200 log 2 fold change and a Dose.FC.LYZ.S ([3]; Dose 2.00 uM) of 0.161 log 2 fold change. The Dose.FC.LYZ.S ([3]; Dose 10.00 uM) was 0.076 log 2 fold change, the Z.LYZ.S [3, 4] was 1.088 and the Z.LYZ.S [3, 5] was 1.291. It also gave a Z.LYZ.S [3, 6] of 1.043, a Z.LYZ.S [3, 7] of 0.494 and an SSMD.LYZ.S [3, 4] of 1.113. The SSMD.LYZ.S [3, 5] was 0.994, the SSMD.LYZ.S [3, 6] was 1.246 and the SSMD.LYZ.S [3, 7] was 0.400. It also gave a Dose.FC.CTG ([2]; Dose 0.08 uM) of 0.524 log 2 fold change, a Z.CTG ([2]; Dose 0.08 uM) of 1.251 and a Dose.FC.CTG ([2]; Dose 0.40 uM) of 0.477 log 2 fold change. For the same molecule, the Z.CTG ([2]; Dose 0.40 uM) was 1.140, the Dose.FC.CTG ([2]; Dose 2.00 uM) was 0.551 log 2 fold change and the Z.CTG ([2]; Dose 2.00 uM) was 1.317. For the same molecule, the Dose.FC.CTG ([2]; Dose 10.00 uM) was 0.541 log 2 fold change, the Z.CTG ([2]; Dose 10.00 uM) was 1.293 and the SSMD.CTG [2, 4] was 1.626. For the same molecule, the SSMD.CTG [2, 5] was 1.743, the SSMD.CTG [2, 6] was 1.554 and the SSMD.CTG [2, 7] was 1.744.

With `NC(=O)c1cccc(-c2cccc(OC(=O)NC3CCCCC3)c2)c1` [URB597] the “Z.LYZ.NS (standard z score)” value ([1]; dose 0.08 uM) was 0.754, the “Z.LYZ.NS (standard z score)” value ([1]; dose 0.40 uM) was −0.007 and the “Z.LYZ.NS (standard z score)” value ([1]; dose 2.00 uM) was 0.307. For the same molecule, the “Z.LYZ.NS (standard z score)” value ([1]; dose 10.00 uM) was −0.123, the “Z.CTG (standard z score)” value ([2]; dose 0.08 uM) was 0.750 and the “Z.CTG (standard z score)” value ([2]; dose 0.40 uM) was 0.154. For the same molecule, the “Z.CTG (standard z score)” value ([2]; dose 2.00 uM) was 0.328 and the “Z.CTG (standard z score)” value ([2]; dose 10.00 uM) was −0.051.

With `CC(C)OC(=O)C1=CN(C(=O)c2ccc(F)c(F)c2)CC(C)(C)c2c1[nH]c1ccccc21` [XL335] the “Z.CTG (standard z score)” value ([2]; dose 0.08 uM) was 0.297, the “Z.CTG (standard z score)” value ([2]; dose 0.40 uM) was −0.615 and the “Z.CTG (standard z score)” value ([2]; dose 2.00 uM) was −0.619. For the same molecule, the “Z.CTG (standard z score)” value ([2]; dose 10.00 uM) was −0.373.

With `O=c1ncccn1[C@@H]1O[C@H](CO)[C@@H](O)[C@H]1O` [Zebularine] the “Z.CTG (standard z score)” value ([2]; dose 0.08 uM) was 0.085, the “Z.CTG (standard z score)” value ([2]; dose 0.40 uM) was 0.000 and the “Z.CTG (standard z score)” value ([2]; dose 2.00 uM) was −0.213. The “Z.CTG (standard z score)” value ([2]; dose 10.00 uM) was −0.399.

In the case of VU 0357121, the “Z.LYZ.NS (standard z score)” value ([1]; dose 0.08 uM) was 0.686, the “Z.LYZ.NS (standard z score)” value ([1]; dose 0.40 uM) was −0.090 and the “Z.LYZ.NS (standard z score)” value ([1]; dose 2.00 uM) was 0.261. For the same molecule, the “Z.CTG (standard z score)” value ([2]; dose 0.08 uM) was 0.438, the “Z.CTG (standard z score)” value ([2]; dose 0.40 uM) was 0.352 and the “Z.CTG (standard z score)” value ([2]; dose 2.00 uM) was 0.029. The “Z.CTG (standard z score)” value ([2]; dose 10.00 uM) was −0.141.

Reference: patent US20230398130A1, “METHODS AND COMPOSITIONS FOR DIFFERENTIATING STEM CELLS” (Massachusetts Institute of Technology, priority 2020, published 2023)
